Data: patent US20240228487A1, “FUSED HETEROCYCLIC COMPOUND AND APPLICATION THEREOF, PHARMACEUTICAL COMPOSITIONS CONTAINING SAME AND APPLICATION THEREOF” (ZHEJIANG UNIVERSITY, priority 2021, published 2024)

Tests used:
[1] = tested on: dopaminergic neurons differentiated from iPSC derived from disseminated PD patients; test: cell viability (cell titer glo) of iPSC differentiated dopaminergic neurons; type: cell-based, human; details: II-23 0.6 μM, ACA 0.5 μM, from day 15 of culture; CTG kit
Description: Using normal and disseminated PD patient-derived induced pluripotent stem cells (iPSC), performing drug interventions using the TRPM2 inhibitors ACA and II-23 after they were induced and differentiated into mature dopaminergic neurons, the drug treating method is as follows: • a. Calculating the materials for the experiment, and starting preparing when the dopaminergic neurons are differentiated to the 8th day. The petri dishes should be treated with 33 μg/mL PDL overnight and washed with sterilized water. After drying, 2 μg/mL of laminin was added and incubated overnight. Both PDL and laminin can be recycled for reuse. • b. Digesting and collecting the differentiated cells with Accutase, and counting with a cell counting plate, and then diluting to 500,000/mL with maturation medium (Y-27632 should be added). Fluorescence confocal imaging was performed using a confocal dish inoculated with 2 mL/dish, and cell viability assays were performed using a 96-well plate inoculated with 100 μL/well. Taking this time point as the 10th day, changing to Y-27632-free medium on the 11th day, and changing the medium every two days. • c. When the cells were cultured to the 15th day, treating the drugs to a final concentration with the medium, the working concentration of ACA is 0.5 μM, and the working concentration of II-23 is 0.6 μM, and the drug-containing medium was changed every four days. […]

[2] = tested on: dopaminergic neurons differentiated from iPSC derived from disseminated PD patients; test: mitochondrial fusion morphology (Mitotracker, Girk2 labeling) of iPSC differentiated dopaminergic neurons; type: cell-based, human; details: II-23 0.6 μM, ACA 0.5 μM; Mitotracker staining, Girk2-positive neurons
Description: Using normal and disseminated PD patient-derived induced pluripotent stem cells (iPSC), performing drug interventions using the TRPM2 inhibitors ACA and II-23 after they were induced and differentiated into mature dopaminergic neurons, the drug treating method is as follows: • a. Calculating the materials for the experiment, and starting preparing when the dopaminergic neurons are differentiated to the 8th day. The petri dishes should be treated with 33 μg/mL PDL overnight and washed with sterilized water. After drying, 2 μg/mL of laminin was added and incubated overnight. Both PDL and laminin can be recycled for reuse. • b. […] Fluorescence confocal imaging was performed using a confocal dish inoculated with 2 mL/dish, and cell viability assays were performed using a 96-well plate inoculated with 100 μL/well. […]
Positive dopamine neurons were labeled with a dopaminergic neuron marker molecule Girk2 antibody susceptible for SNc, and cellular mitochondria were labeled with the mitochondrial dye mitotracker as in FIG. 15. […] Finally, performing the fluorescence imaging: removing the secondary antibody, and washing three times with 1×PBS, adding 50% Glycerol for fluorescence protection, and then imaging with a Zeiss LSM880 laser confocal microscope, as shown in FIG. 15.

[3] = molecular target: T1, human TRPM2 channels (Homo sapiens, UniProt O94759); test: whole cell patch clamp, inhibition of TRPM2 channel current; type: cell-based; details: HEK293 cells stably expressing human TRPM2, 500 μM ADPR
T1 construct: expressed in transfected cells
Description: The fused heterocyclic compound of the present invention has an inhibitory effect on the TRPM2 channel, and its pharmacological activity is measured using whole cell patch clamp technology, the corresponding steps are as follows: Incubating HEK293 cells stably expressing human TRPM2 channels in DMEM/F-12 medium containing 10% bovine serum, 50 units/mL of penicillin and […] of streptomycin under the condition of 5% CO2 and 37° C. The cells before testing are stored in the extracellular fluid (147 mM NaCl, 2 mM KCl, 1 mM MgCl2, 2 mM CaCl2, 10 mM HEPES, 13 mM glucose, pH 7.4). The electrode is filled with the electrode internal solution (147 mM NaCl, 0.05 mM EGTA, 1 mM MgCl2, 10 mM HEPES, 0.5 mM ADPR, pH=7.3), and the resistance is maintained at 3-5 M Ω. Administering ADPR into cells through electrodes, and detecting the ADPR concentration used to activate TRPM2 as 500 μM, when detecting a stable current, perfusing the corresponding concentration of fused heterocyclic compound II-1 into the extracellular fluid for at least 60 seconds. record the change in current magnitude using voltage ramp mode, changing the voltage from −100 mV to+100 mV within 500 ms, with a normal clamp voltage of 0 mV and a TRPM every 5 seconds; finally, replacing the extracellular fluid with a solution with pH=5.0 to block the TRPM2 current, the electrophysiological current test results obtained are shown in Table 1, and the electrophysiological current graph obtained is shown in FIG. 1. Similarly, administering corresponding concentrations of other fused heterocyclic compounds (II-2˜II-54, III-1˜III-11) into the extracellular fluid, taking electrophysiological tests using the same method, the results are shown in Table 1. The electrophysiological representative current graphs of some fused heterocyclic compounds (II-9, II-19, and II-36) inhibiting TRPM2 channel current are shown in FIG. 1.

[4] = tested on: C57BL/6 mice, transient middle cerebral artery occlusion (tMCAO); test: mouse tMCAO ischemia/reperfusion injury model (Embodiment 68); type: in vivo; details: 3 mg/kg tail vein injection 3 h after reperfusion
Description: After isoflurane inhalation gas anesthesia of 22-25 g male C57BL/6 mice, the fiber-optic probes of the laser Doppler flowmeter were fixed to the animal's skull with glue for monitoring the cerebral blood flow of the middle cerebral artery (MCA) supplying cortex. […] Only animals whose blood flow values decreased to 20% of the basic value were selected according to the blood flow data monitored by the flowmeter. […]
The mice were decapitated 24 h after ischemia-reperfusion, the coronal planes of the brains were cut into brain slices of about 2 mm thickness uniformly, the brain slices were placed in 0.25% 2,3,5-triphenyltetrazolium chloride (TTC) solution, incubated at 37° C. […] The processed brain slices were photographed using a macro camera, and Image J image analysis software was used to calculate and count the cerebral infarct volume, and the measured results are shown in FIG. 4. […]

[5] = tested on: C57BL/6 mice, transient middle cerebral artery occlusion (tMCAO); test: mouse tMCAO cerebral stroke model (Embodiment 69); type: in vivo; details: 3 mg/kg tail vein injection 3 h after reperfusion; for area of cerebral infarction caused by tMCAO: TTC staining 24 h after ischemia-reperfusion; for neuromotor dysfunction scores caused by tMCAO: scored 24 h after ischemia-reperfusion
Text: After isoflurane inhalation gas anesthesia of 22-25 g male C57BL/6 mice, the fiber-optic probes of a laser Doppler flowmeter were fixed to the skull of the mice with glue for monitoring the cerebral blood flow of the middle cerebral artery (MCA) supplying cortex. The mice were fixed in the supine position, and the middle of the neck was dehaired and routinely sterilized with 75% alcohol. An approximately 1.5 cm incision was made in the middle of the neck, and the skin of the neck was incised, and the muscle and fascia were separated along the inner edge of the sternocleidomastoideole; the right carotid artery sheath was bluntly separated to expose the right common carotid artery (CCA), external carotid artery (ECA), and internal carotid artery (ICA); after the surgical area was exposed satisfactorily, the CCA and ICA were temporarily clipped with arterial clips, and a small incision was made at the proximal end of the ECA with microsurgical scissors, and a nylon monofilament suture was inserted from the small incision along the ECA, and gently pushed into the intracranial area in the direction of the ICA for about 11.5±0.5 mm, blocking the beginning of the middle cerebral artery. Only the animals whose blood flow values decreased to 20% of the basic value were selected according to the blood flow data monitored by the flowmeter. After 90 minutes of ischemia, the monofilament sutures were gently withdrawn out, the arterial stumps were tied tightly, the surgical wounds were inspected, the bleeding was thoroughly stopped, a small amount of penicillin powder was sprinkled locally to prevent infection, and the subcutaneous tissues and the skin were sutured layer by layer, thus completing the ischemia reperfusion injury model. A heating plate was used to maintain the body temperature of the animals during surgery. After completion of the surgery, the sutured mice were placed in a heat preservation and humidification box until the mice recovered activities. Animals in the sham-operated group were subjected to the same surgical procedure but without middle artery occlusion.
Clean-grade male C57BL/6 mice were randomly divided into five groups, namely, the sham-operated group, the group of the positive control drug Edaravone(3 mg/kg), and the 3 mg/kg dose group of compounds II-1, II-23 and III-1.
The mice were subjected to tail vein injections of Edaravone, II-1, II-23, and III-1 respectively 3 h after modeling and reperfusion; the sham-operated group was injected with an equal volume of saline, and II-1, II-23, III-1, and Edaravone were dissolved in 0.9% saline solution. Neurological function scores and TTC staining of mice were performed 24 h after ischemia-reperfusion, and the results are shown in FIGS. 6, 7 and 8.
The mice were decapitated 24 h after ischemia-reperfusion, the coronal planes of the brains were cut into brain slices of about 2 mm thickness uniformly. The brain slices were placed in 0.25% 2,3,5-triphenyltetrazolium chloride (TTC) solution, incubated at 37° C. Celsius for 30 minutes away from light, stained, and fixed in 4% paraformaldehyde neutral buffer (pH 7.4) overnight. The processed brain slices were photographed using a macro camera, and Image J image analysis software was used to calculate and count the cerebral infarct volume, and the measured results are shown in FIG. 7. The formula for calculating the percentage of infarct volume was (sum of the left uninfarcted area −sum of the right uninfarcted area)/sum of the left uninfarcted area×100%.
According to the five-level, four-point standard of score, the mortality and neuromotor dysfunction scores of each group of mice were performed, and the results are shown in FIG. 8. […]

T1 sequence (O94759 whole entry): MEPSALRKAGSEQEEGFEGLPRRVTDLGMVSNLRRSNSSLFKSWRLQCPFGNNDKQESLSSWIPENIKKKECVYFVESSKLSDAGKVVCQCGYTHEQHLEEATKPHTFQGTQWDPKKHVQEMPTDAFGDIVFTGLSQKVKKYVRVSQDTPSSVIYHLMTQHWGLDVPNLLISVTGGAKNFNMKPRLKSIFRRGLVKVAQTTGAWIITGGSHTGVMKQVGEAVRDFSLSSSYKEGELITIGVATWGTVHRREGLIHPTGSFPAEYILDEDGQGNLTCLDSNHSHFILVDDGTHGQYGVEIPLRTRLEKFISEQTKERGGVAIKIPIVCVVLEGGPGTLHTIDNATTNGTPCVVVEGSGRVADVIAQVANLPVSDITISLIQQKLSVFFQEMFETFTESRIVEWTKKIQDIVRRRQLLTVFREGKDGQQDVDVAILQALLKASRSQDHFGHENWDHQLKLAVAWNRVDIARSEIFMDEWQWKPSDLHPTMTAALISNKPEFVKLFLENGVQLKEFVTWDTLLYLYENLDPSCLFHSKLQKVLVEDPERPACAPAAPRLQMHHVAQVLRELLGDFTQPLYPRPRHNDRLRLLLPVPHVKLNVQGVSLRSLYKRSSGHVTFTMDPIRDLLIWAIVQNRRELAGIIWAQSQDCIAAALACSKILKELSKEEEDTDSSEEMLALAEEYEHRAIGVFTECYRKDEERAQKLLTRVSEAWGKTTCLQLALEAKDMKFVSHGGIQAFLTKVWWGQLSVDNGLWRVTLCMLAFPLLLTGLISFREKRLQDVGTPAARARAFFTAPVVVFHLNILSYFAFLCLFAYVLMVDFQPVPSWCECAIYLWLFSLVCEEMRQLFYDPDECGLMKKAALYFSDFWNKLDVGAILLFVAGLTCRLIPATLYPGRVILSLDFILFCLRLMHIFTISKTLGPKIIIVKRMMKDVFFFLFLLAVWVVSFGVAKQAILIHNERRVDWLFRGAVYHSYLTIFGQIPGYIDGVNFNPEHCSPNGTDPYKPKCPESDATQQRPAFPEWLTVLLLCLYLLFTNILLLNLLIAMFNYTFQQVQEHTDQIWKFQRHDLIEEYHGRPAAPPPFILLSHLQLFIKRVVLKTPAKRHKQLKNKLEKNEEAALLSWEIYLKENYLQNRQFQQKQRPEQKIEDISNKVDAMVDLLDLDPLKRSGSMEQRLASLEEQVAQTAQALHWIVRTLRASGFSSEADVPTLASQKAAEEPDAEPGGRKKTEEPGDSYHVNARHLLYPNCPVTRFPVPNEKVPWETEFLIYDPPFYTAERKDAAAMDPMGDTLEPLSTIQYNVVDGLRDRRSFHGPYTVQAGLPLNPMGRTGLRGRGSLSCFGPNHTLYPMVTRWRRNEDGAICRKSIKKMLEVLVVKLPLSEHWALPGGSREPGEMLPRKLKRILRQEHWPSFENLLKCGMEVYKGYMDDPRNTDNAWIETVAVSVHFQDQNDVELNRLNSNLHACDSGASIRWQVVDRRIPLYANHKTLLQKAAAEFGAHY

**Q.** With `CCCCCc1ccc(/C=C/C(=O)Nc2ccccc2C(=O)O)cc1` [ACA, reference compound] as the molecule, how does the “cell viability of differentiated dopaminergic neurons derived from disseminated PD patients” value [1] read?
**A.** restored

**Q.** What about the “excessive mitochondrial fusion in dopaminergic neurons derived from PD patients” value [2] of the same molecule?
**A.** reversed

**Q.** How did the IC50 [3] turn out when `CCOC(=O)c1cc(C(=O)c2ccccc2)n2cccc2c1` [II-1, 5-benzoimide 7-carboxylic acid ethyl ester] was run?
**A.** 1 to 10 µM

**Q.** What about the “volume of cerebral infarction caused by tMCAO” value ([4]; TTC staining 24 h after ischemia-reperfusion) of the same molecule?
**A.** significantly reduce

**Q.** And the “scores of neuromotor dysfunction caused by tMCAO” value ([4]; scored 24 h after ischemia-reperfusion)?
**A.** significantly reduce

**Q.** And the “area of cerebral infarction caused by tMCAO” value [5]?
**A.** significantly reduced

**Q.** And the “neuromotor dysfunction scores caused by tMCAO” value [5]?
**A.** significantly reduced

**Q.** Which results are given for `COC(=O)c1cc(C(=O)c2ccccc2)n2ccnc2c1` [III-1, 5-benzimidazolo[1,2-a]pyridine-7-methyl carboxylate]?
**A.** IC50 [3]: 1 to 10 µM; area of cerebral infarction caused by tMCAO [5]: significantly reduced; neuromotor dysfunction scores caused by tMCAO [5]: significantly reduced

**Q.** How did the IC50 [3] turn out when `CCNC(=O)c1cc(C(=O)c2ccccc2)n2ccnc2c1` [III-7, 5-benzoyl-N-ethylimidazolo[1,2-a]pyridine-7-formamide] was run?
**A.** 1 to 10 µM

**Q.** For `CCN(CC)C(=O)c1cc(C(=O)c2ccccc2)n2ccnc2c1` [III-8, 5-Benzoyl-N,N-diethylimidazole[1,2-a]pyridine-7-formamide], which IC50 [3] is on record?
**A.** 10 to 20 µM

**Q.** With `O=C(c1ccccc1)c1cc(C(=O)N2CCCC2)cc2nccn12` [III-9] as the molecule, how does the IC50 [3] read?
**A.** 10 to 20 µM

**Q.** Which IC50 [3] does the source give for `O=C(c1ccccc1)c1cc(C(=O)N2CCCCC2)cc2nccn12` [III-10, (5-benzimidazole[1,2-a]pyridine-7-yl) (piperidin-1-yl) ketone] here?
**A.** 10 to 20 µM

**Q.** With `CCOC(=O)c1cc(C(O)c2ccccc2)n2ccnc2c1` (stereo not drawn) [III-11, 5-(hydroxy (phenyl)methylimidazolo [1,2-a]pyridine-7-ethyl carboxylate] as the molecule, how does the IC50 [3] read?
**A.** 20 to 50 µM
